In publication PMC6954720, “Discovery of retinoic acid receptor agonists as proliferators of cardiac progenitor cells through a phenotypic screening approach” (Stem Cells Translational Medicine, 2019):
“Also recorded” adds a separate entry of the source. Like-named read-outs stand apart in the source and are kept apart here.

Legend:
[1] = target: T1, RARA (alpha) ligand binding domain (Homo sapiens, UniProt P10276); assay: RAR LBD-SRC1-2 coactivator peptide recruitment assay, agonist format, RARA; type: biochemical; details: for EC50: read-out: RARα pEC50 (converted)
T1 sequence (P10276 183-417 limits assumed): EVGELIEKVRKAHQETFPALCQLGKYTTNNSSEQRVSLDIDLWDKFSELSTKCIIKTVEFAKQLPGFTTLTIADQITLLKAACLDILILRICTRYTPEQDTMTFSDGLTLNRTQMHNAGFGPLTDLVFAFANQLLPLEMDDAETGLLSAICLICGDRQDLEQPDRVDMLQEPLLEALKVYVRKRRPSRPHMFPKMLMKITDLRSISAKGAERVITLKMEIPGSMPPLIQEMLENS
Method: (§1) RAR ligand binding domain (LBD)‐SRC1‐2 coactivator peptide (NCOA1_677‐700 biotinylated) recruitment assays were established for the three RAR isotypes RARA (alpha), RARB (beta), and RARG (gamma) to determine relative potencies. […] A total of 0.4 μL of a fixed concentration range of test ligands dissolved in dimethyl sulphoxide (DMSO) was added to assay plates using an acoustic liquid dispenser. […] The raw data were transformed to % effect using the equation: compound % effect = 100 × [(X − min)/(max − min)], where X represents the effect in the presence of test compound and max and min are the effects in presence of the maximum and minimum controls, respectively.
(§2) The data were plotted to generate concentration‐response profiles and the concentration‐response curves were fit to the data using the four‐parameter logistic smart fit method in the Genedata Screener software (Genedata, Inc).

[2] = target: T2, RARB (beta) ligand binding domain (Homo sapiens, UniProt P10826); assay: RAR LBD-SRC1-2 coactivator peptide recruitment assay, agonist format, RARB; type: biochemical; details: for EC50: read-out: RARβ pEC50 (converted)
T2 sequence (P10826 183-417 limits assumed): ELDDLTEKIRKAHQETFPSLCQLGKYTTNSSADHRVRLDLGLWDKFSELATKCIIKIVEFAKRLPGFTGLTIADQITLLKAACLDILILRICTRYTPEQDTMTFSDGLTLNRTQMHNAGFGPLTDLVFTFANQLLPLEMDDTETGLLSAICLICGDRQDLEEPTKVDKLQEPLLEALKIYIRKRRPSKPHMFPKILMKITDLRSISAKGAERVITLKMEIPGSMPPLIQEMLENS
Method: as §1, §2

[3] = target: T3, RARG (gamma) ligand binding domain (Homo sapiens, UniProt P13631); assay: RAR LBD-SRC1-2 coactivator peptide recruitment assay, agonist format, RARG; type: biochemical; details: for EC50: read-out: RARγ pEC50 (converted)
T3 sequence (P13631 185-419 limits assumed): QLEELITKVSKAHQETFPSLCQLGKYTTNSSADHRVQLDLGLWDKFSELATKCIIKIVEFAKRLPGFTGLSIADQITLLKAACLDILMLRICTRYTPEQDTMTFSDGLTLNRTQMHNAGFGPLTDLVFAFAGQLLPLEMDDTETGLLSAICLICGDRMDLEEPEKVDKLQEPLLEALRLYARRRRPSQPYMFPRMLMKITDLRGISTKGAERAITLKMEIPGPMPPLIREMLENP
Method: as §1, §2

[4] = target: T1, RARA (alpha) ligand binding domain; assay: RAR coactivator peptide recruitment assay, antagonist format, RARA; type: biochemical; details: for IC50: read-out: RARα pIC50 (converted)
Method: as §1, §2

[5] = target: T2, RARB (beta) ligand binding domain; assay: RAR coactivator peptide recruitment assay, antagonist format, RARB; type: biochemical; details: for IC50: read-out: RARβ pIC50 (converted)
Method: as §1, §2

[6] = target: T3, RARG (gamma) ligand binding domain; assay: RAR coactivator peptide recruitment assay, antagonist format, RARG; type: biochemical; details: for IC50: 10 nM R-667, read-out: RARγ pIC50 (converted)
Method: as §1, §2

iPS-derived CPCs [7] = details: absence of RAR agonist
From the text: Cells were fixed and nuclei stained on day 4 postplating and 3 days postcompound addition. […] The data represent the mean of two independent experiments each conducted in quadruplicate; error bars indicate SEM. […] The data for CPCs and CFs are obtained from two independent RNA preparations from each cell type

[8] = tested on: human iPS-derived cardiac progenitor cells (CPCs); assay: CPC proliferation assay (nuclear count); type: cell-based; details: 10-point concentration response
[9] = tested on: human iPS-derived cardiac progenitor cells (CPCs); assay: CPC proliferation assay (nuclear count); type: cell-based; details: for % Effect-normalised cell count: primary screen, relative to basic FGF 100 ng/mL
Method: (§3) The CPC proliferation assay including image and data analysis was performed as previously described.14 Cardiac progenitor marker antibodies are listed in Table S3.
A library of 10 000 compounds was screened in singlicate at three concentrations (0.1, 1.0, and 10 μM) in the CPC proliferation assay. Each plate contained neutral controls, 0.1% DMSO and maximum controls, 100 ng/mL human basic fibroblast growth factor (FGF; Invitrogen, ThermoFisher Scientific, Waltham, Massachusetts). The data were analyzed using the Genedata Screener software (Genedata, Inc, Basel, Switzerland). […] Results were calculated using the following calculation method: compound % effect = 100 × [(X − min)/(max − min)], where X represents a normalized value for the compound based on the neutral and maximum controls.
The library was screened in three‐point concentration response (CR) at 0.1, 1.0, and 10 μM measuring proliferation of human induced pluripotent stem (iPS)‐derived CPCs with nuclear count, as measured by Hoechst staining, as the primary endpoint.

iPS-derived CPCs [10] = assay: Cardiac progenitor marker antibody staining of treated CPCs; type: cell-based, human; details: 40 nM, 3 days
Method: as §3
A key requirement of the screen was that the expanded CPCs must retain their progenitor phenotype.
Figure 2 Cardiac progenitor cells (CPCs) retain progenitor markers after retinoic acid receptor agonist treatment. […] Larger images are representative merged images of Hoechst nuclear stain in blue and immunofluorescence of the indicated progenitor marker in green. Insets show the progenitor marker staining in gray scale at 3.3‐fold higher magnification. Scale bars: 50 μm

[11] = tested on: HuES6 hPSC-derived cardiac progenitors; assay: HuES6-derived cardiac progenitors replated on day 5: cell number, RT-qPCR, immunocytochemistry; type: cell-based, human; details: for terminal cardiac differentiation, in words / expression of cardiac progenitor markers vs untreated: 1 μM, day-5 replated cells, 4 days; for expression of cardiac progenitor markers vs untreated: with the exception of ISL1; for effect on cell proliferation / cell numbers, in words: 1.0 μM, day-5 replated progenitors, 4 days of exposure
Method: Insulin and signaling agonists were omitted after 1 day. On days 2‐3, the nascent mesodermal cells were specified to the cardiac lineage using 0.2 μM C‐59 (R&D Tocris) supplementation. Culture medium was replaced daily.
Basal cardiac progenitor medium was composed of DMEM/F12 (ThermoFisher Scientific), insulin/transferrin/selenium supplement, 0.1% human serum albumin (Biological Industries Inc, Cromwell, Connecticut), 1× chemically defined lipids (ThermoFisher Scientific), and antibiotics. RAR agonists (1 μM) were added from the day of passaging the cells. Samples were harvested and monitored after 4 days of treatment.
Cell numbers per well were quantified following single‐cell dissociation with Accutase and using standard Neubauer counting chambers. RT‐qPCR and immunocytochemistry were performed according to standard procedures. RPL37A served as housekeeping gene for normalization.

[12] = tested on: RAR-responsive genes in CPCs; assay: RNA seq analysis of AM580-treated CPCs; type: cell-based, human; details: 4-hour and 24-hour time points
Method: CPC was seeded in fibronectin‐coated 24‐well plates, 150 000 cells in 0.5 mL media per well. […] Cell media were removed after 4 hours or 24 hours, and the cells were lysed for RNA preparation using the MagMax Total RNA Isolation kit. Triplicate samples were prepared for each treatment and time point. RNA integrity and concentration were analyzed on a fragment analyzer with the standard sensitivity RNA kit (Agilent, Santa Clara, California). RNA quality number was 8.2 on average.
A total of 1000 ng RNA per sample was processed with the TruSeq stranded mRNA kit (Illumina, San Diego, California) following the instructions from the manufacturer. […] Samples were pooled, diluted, and denatured according to Illumina's recommendations and sequenced on a NextSeq500 (High 150 cycles kit, reading 2 × 75 cycles). On average, samples had 13M reads with 93% of reads with >Q30.
RNA‐Seq data were processed using the bcbio pipeline version 0.9.7. Hisat2 version 2.0.2‐β aligner was used to align reads to the human genome version hg38. […] Differential expression analysis was performed on feature counts using DESeq2.32 Data quality was assessed using MultiQC.33 Genes with the lowest expression levels (less than five counts in at least two samples) were removed prior to differential expression estimation since they can be considered as nonexpressed.

[13] = tested on: human cardiac fibroblasts (CFs); assay: CF proliferation assay (nuclear count)
Method: To ensure that these molecules were not general proliferators of all cardiac cells, they were also tested in a human CF proliferation assay31 using nuclear count as the endpoint.

RAR = RAR coactivator recruitment assay (isotypes not separated); type: biochemical
Method: as §1, §2

[14] = iPSC-derived CPC proliferation, read-out: CPC pEC50 (converted)

EC50 [1] [µM]	EC50 [2] [µM]	EC50 [3] [µM]	IC50 [4] [µM]	IC50 [5] [µM]	IC50 [6] [µM]	maximal effect (% top effect) [2] [%]	RARγ pEC50 (% top effect): % top effect [3] [%]	SMILES	EC50 [8, 14] [µM]	CPC proliferation, result in words [9]	terminal cardiac differentiation, in words [11]	expression of cardiac progenitor markers vs untreated [11]	effect on cell proliferation / cell numbers, in words [11]	other results
> 20	> 20	> 20	0.00251	0.00126	0.02	–	–	Cc1ccc(C2=CC(C)(C)Oc3c(Br)cc(C(=O)Nc4ccc(C(=O)O)c(F)c4)cc32)cc1 [AGN 194301]	> 10	–	–	–	–	RARα pIC50 (% top effect): % top effect ([4]; antagonist format, 10 nM ATRA): 108%; RARβ pIC50 (% top effect): % top effect ([5]; antagonist format, 10 nM TTNPB): 105%; RARγ pIC50 (% top effect): % top effect ([6]; 10 nM R-667): 106%; effect on CPC proliferation of antagonist alone (iPS-derived CPCs [7]): did not proliferate the cells; also recorded: no effect on proliferation; toxicity to CPCs (iPS-derived CPCs [7]): no signs of toxicity
–	–	–	–	–	–	–	–	CC1(C)CCC(C)(C)c2cc(C#Cc3ccc(C(=O)O)cc3)ccc21 [EC 23]	0.00126	EC50 values in the low nanomolar range	pronounced inhibition of terminal cardiac differentiation	enhanced the expression of cardiac progenitor markers	strong positive effects on cell proliferation	–
> 20	> 20	> 20	> 20	> 20	–	–	–	CC1(C)CCC(C)(C)c2cc(C3(c4ccc(C(=O)O)cc4)OCCO3)ccc21 [SR 11237]	> 10	inactive	–	–	–	–
–	–	–	–	–	–	–	–	C/C(=C\c1ccc(C(=O)O)cc1)c1ccc2c(c1)C(C)(C)CCC2(C)C [TTNPB]	0.00316	EC50 values in the low nanomolar range	pronounced inhibition of terminal cardiac differentiation	enhanced the expression of cardiac progenitor markers	strong positive effects on cell proliferation	–
–	–	–	–	–	–	–	–	CC1=C(/C=C/C(C)=C\C=C\C(C)=C\C(=O)O)C(C)(C)CCC1 [9‐cis‐retinoic acid]	> 10	inactive	–	–	–	–
–	–	–	–	–	–	104	99	CC1(C)CCC(C)(C)c2cc(C(=O)Nc3ccc(C(=O)O)cc3)ccc21 [AM580]	0.00631	–	–	–	–	% Effect-normalised cell count ([9]; Log Concentration M -5 (10 μM)): 49.6%; % Effect-normalised cell count ([9]; Log Concentration M -6 (1.0 μM)): 76.4%; % Effect-normalised cell count ([9]; Log Concentration M -7 (0.1 μM)): 106%; expression of cardiac progenitor markers Nkx2.5, Islet1, Gata4, PDGFRα after treatment (iPS-derived CPCs [10]): retain expression; mRNA expression of RAR-responsive genes (RARB, RBP1, CRABP2, CYP26A1) [12]: significant increase; EC50 ([8]; read-out: EC50, CPC proliferation): 0.005 µM; CF proliferation, result in words [13]: inactive
> 20	> 20	> 20	> 20	> 20	> 20	–	–	CC1=C(/C=C/C(C)=C/C=C/C(C)=C/CO)C(C)(C)CCC1 [Retinol]	> 10	no effect	–	–	–	activity in RAR coactivator recruitment assay, in words (RAR): inactive
0.00398	0.01	0.1	–	–	–	100	88	CC1(C)CCC(C)(C)c2cc(C(=O)Nc3ccc(C(=O)O)c(F)c3)ccc21 [AGN 193312]	0.00794	EC50 values in the low nanomolar range	–	–	–	top effect (% of maximum control) [1]: 159%

SMILES	EC50 [1] [µM]	EC50 [2] [µM]	EC50 [3] [µM]	IC50 [4] [µM]	IC50 [5] [µM]	IC50 [6] [µM]	maximal effect (% top effect) [2] [%]	RARγ pEC50 (% top effect): % top effect [3] [%]	EC50 [8, 14] [µM]	CPC proliferation, result in words [9]	terminal cardiac differentiation, in words [11]	expression of cardiac progenitor markers vs untreated [11]	effect on cell proliferation / cell numbers, in words [11]	other results
CC1(C)CCC(C)(C)c2cc(NC(=O)c3ccc(C(=O)O)cc3)ccc21 [AM80]	–	–	–	–	–	–	149	119	0.00794	EC50 values in the low nanomolar range	pronounced inhibition of terminal cardiac differentiation	enhanced the expression of cardiac progenitor markers	strong positive effects on cell proliferation	expression of cardiac progenitor markers Nkx2.5, Islet1, Gata4, PDGFRα after treatment (iPS-derived CPCs [10]): retain expression
Cc1cc2c(cc1-c1cc(/C=C/C(=O)O)ccc1O)C(C)(C)CCC2(C)C [CD 3254]	> 20	> 20	> 20	> 20	> 20	> 20	–	–	> 10	inactive	–	–	–	–
